Laboratory results taken from patent publication US4554275A, “Triazine derivatives” (Nippon Shinyaku Co., Ltd., priority 1982, dated 1985).

Columns and labels:
Carrageenin Edema = experiment: Carrageenin edema inhibitory action (rat hind paw swelling); format: in vivo, male rats (SLC-SD strain); conditions: po, 3 h, 400 mg/kg orally, one hour before 0.1 ml of 0.5% carrageenin into right hind paw, measured three hours later, vs control group, read-out: Carrageenin Edema Inhibitory Rate (%)
Protocol: Five male rats (SLC-SD strain, five weeks age, supplied by Seidokyo) were used in one group in the experiment. Drugs to be tested were given orally at a dose of 400 mg/kg and, one hour later, 0.1 ml of 0.5% carrageenin was injected subcutaneously to right hind paw. Three hours later, volumes of the right hind paws were measured, volumes of the paws before the carrageenin injection were deducted therefrom, and the resulting volumes were defined as a degree of swelling.
The inhibitory rates were calculated from mean degree of swelling of the drug-administered groups and the control group and the result is shown in Table 1.

male mice = conditions: mouse, in vivo, po, 2000 mg/kg

| SMILES | inhibition in vivo at 400 mg/kg (Carrageenin Edema) [%] | Acute toxicity (male mice) |
| --- | --- | --- |
| COc1cc2ccccc2cc1-c1nc(N)nc(N)n1 [Example 1, 2,4-diamino-6-(2-methoxy-3-naphthyl)-s-triazine] | 60.3 | no toxicity was observed |
| COc1ccc(-c2nc(N)nc(NC(=O)c3cccnc3)n2)c2ccccc12 [Example 2, 2-amino-4-nicotinoylamino-6-(1-methoxy-4-naphthyl)-s-triazine] | 34.7 | no toxicity was observed |
| Nc1nc(NC(=O)c2cccnc2)nc(-c2cc3ccccc3cc2F)n1 [Example 3, 2-amino-4-nicotinoylamino-6-(2-fluoro-3-naphthyl)-s-triazine] | 56.5 | no toxicity was observed |
| Nc1nc(N)nc(-c2cc3ccccc3cc2OCc2ccccc2)n1 [Example 5, 2,4-diamino-6-(2-benzyloxy-3-naphthyl)-s-triazine] | 30.4 | – |
| Nc1nc(N)nc(-c2ccc(OCc3ccccc3)c3ccccc23)n1 [Example 6, 2,4-diamino-6-(1-benzyloxy-4-naphthyl)-s-triazine] | 30.9 | – |
| COc1ccc2ccccc2c1-c1nc(N)nc(N)n1 [Example 7, 2,4-diamino-6-(2-methoxy-1-naphthyl)-s-triazine] | 44.6 | – |
| COc1ccc(-c2nc(N)nc(N)n2)c2ccccc12 [Example 9, 2,4-diamino-6-(1-methoxy-4-naphthyl)-s-triazine] | 52.4 | no toxicity was observed |
| Nc1nc(N)nc(-c2ccc3cc(OCc4ccccc4)ccc3c2)n1 [Example 10, 2,4-diamino-6-(2-benzyloxy-6-naphthyl)-s-triazine] | 50.3 | – |
| Nc1nc(N)nc(-c2cc3ccccc3cc2F)n1 [Example 11, 2,4-diamino-6-(2-fluoro-3-naphthyl)-s-triazine] | 48.8 | – |
| Nc1nc(N)nc(-c2cc3ccccc3cc2Cl)n1 [Example 12, 2,4-diamino-6-(2-chloro-3-naphthyl)-s-triazine] | 61.3 | no toxicity was observed |
| Nc1nc(N)nc(-c2cc3ccccc3cc2Br)n1 [Example 13, 2,4-diamino-6-(2-bromo-3-naphthyl)-s-triazine] | 49.1 | – |
| Nc1nc(N)nc(-c2ccc(Cl)c3ccccc23)n1 [Example 14, 2,4-diamino-6-(1-chloro-4-naphthyl)-s-triazine] | 42.6 | – |
| Nc1nc(N)nc(-c2ccc(Br)c3ccccc23)n1 [Example 15, 2,4-diamino-6-(1-bromo-4-naphthyl)-s-triazine] | 48.4 | – |
| COc1ccc2cc(-c3nc(N)nc(N)n3)ccc2c1 [Example 16, 2,4-diamino-6-(2-methoxy-6-naphthyl)-s-triazine] | 51.1 | – |
| Nc1nc(NC(=O)c2cccnc2)nc(-c2ccc3ccccc3c2)n1 [Example 18, 2-Amino-4-nicotinoylamino-6-beta-naphthyl-s-triazine] | 24.8 | no toxicity was observed |
| COc1cc2ccccc2cc1-c1nc(N)nc(NC(=O)c2cccnc2)n1 [Example 19, 2-amino-4-nicotinamido-6-(2-methoxy-3-naphthyl)-s-triazine] | 35 | – |
| Nc1nc(NC(=O)c2cccnc2)nc(-c2ccc3cc(OCc4ccccc4)ccc3c2)n1 [Example 23, 2-amino-4-nicotin-amido-6-(6-benzyloxy-2-naphthyl)-s-triazine] | 28.1 | no toxicity was observed |
| Nc1nc(NC(=O)c2cccnc2)nc(-c2ccc(Cl)c3ccccc23)n1 [Example 24, 2-amino-4-nicotinamido-6-(1-chloro-4-naphthyl)-s-triazine] | 25 | no toxicity was observed |
| Nc1nc(NC(=O)c2cccnc2)nc(-c2ccc(Br)c3ccccc23)n1 [Example 25, 2-amino-4-nicotinamidio-6-(1-bromo-4-naphthyl)-s-triazine] | 25.1 | – |
| Nc1nc(NC(=O)c2cccnc2)nc(-c2cc3ccccc3cc2Br)n1 [Example 27, 2-amino-4-nicotinamido-6-(2-bromo-3-naphthyl)-s-triazine] | 33.5 | – |
| Nc1nc(NC(=O)c2cccnc2)nc(-c2ccc3ccccc3c2O)n1 [Example 28, 2-amino-4-nicotinamido-6-(1-hydroxy-2-naphthyl)-s-triazine] | 19.4 | no toxicity was observed |
